# Entries after “also recorded” stand apart in the source; their conditions may differ.
# Columns and labels:
# [1] = test system: E6/E7 immortalized human foreskin keratinocytes; assay: p53/p21 immunoblot analysis in E6/E7 immortalized HFKs; type: cell-based; settings: 40 hours
# Description: Each compound was used to treat primary HFKs or HFKs immortalized through the over-expression of HPV16 E6 and E7 proteins.
# 20,000 cells per cm^2 were plated in 6-well dishes. Cells were incubated for 24 hours at which time fresh media and compound were added. After 40 hours, cells were harvested, washed with cold PBS, and lysed in RIPA buffer with protease inhibitor. Each sample was separated on a 12% SDS-page gel, transferred to Immobilon-P membrane (Millipore) and blotted for the p53 (DO-1, Santa Cruz), p21 (c-19, Santa Cruz), and actin (A2066, Sigma). Protein quantification was performed with the Fujifilm LAS-4000 Multifunctional Imaging System. The signal intensity was measured for each band on an immunoblot, normalized to the loading control, and the fold increase was determined in relation to the appropriate DMSO treated control. RNA was isolated from these cells using Trizol Reagent (Invitrogen 15596-026). cDNA was generated using the Improm-II Reverse Transcription System (Promega A3801). qPCR was performed as described in the protocol for SsoFast EvaGreen supermix (BioRad 172-5023) using an BioRad CFX96 real-time PCR machine. Melting curves for each reaction were obtained. Each sample was assayed in triplicate and every plate contained a 5-point cDNA dilution course to calculate amplification efficiency for each primer pair. The Pfaffl method was used to determine the change in transcript levels relative to the DMSO and normalized to GAPDH.
# [2] = test system: p21^Cip1/Waf1 mRNA; assay: p21 mRNA qRT-PCR; type: cell-based, human; settings: relative to DMSO, normalized to GAPDH
# Description: It is possible that the increased p53 and p21 levels resulted from non-specific inhibition of protein degradation. However, if the increase in p21 was dependent upon p53 promoter activation, it should be possible to detect changes in the amounts of p21 mRNA detected in treated cells. To confirm that the increase in p21 protein level resulted from p53 activation, the levels of p21 mRNA were analyzed using qRT-PCR.
# Figure 6 Induction of p21^Cip1/Waf1 mRNA. Compounds were tested for the ability to induce p21^Cip1/Waf1 expression at the mRNA level. Relative increases in transcripts were determined by qRT-PCR. […] Fold induction was calculated in relation to treatment with DMSO and normalized to GAPDH. Data were analyzed using one-way ANOVA with post-hoc analysis (Dunnetts; S.E.M.; n=2). Statistical significance (p<0.01) is indicated as * in comparison to Caski control (DMSO), # E6/E7 HFK control (DMSO), § HFK control (DMSO), and ◙ for RPE-1 control (DMSO).
# 20,000 cells per cm^2 were plated in 6-well dishes. Cells were incubated for 24 hours at which time fresh media and compound were added. […] Protein quantification was performed with the Fujifilm LAS-4000 Multifunctional Imaging System. The signal intensity was measured for each band on an immunoblot, normalized to the loading control, and the fold increase was determined in relation to the appropriate DMSO treated control. […]
# [3] = molecular target: T1, MBP-E6 (Human papillomavirus type 16, UniProt P03126); assay: thermal shift (Sypro Orange) assay; type: binding, HPV-16; settings: versus DMSO; for effect on Tm of MBP-E6: 5-150 µM tested
# T1 construct: made in house; host or cells: E. coli BL21DE(3)
# Description: A thermal shift assay was used to assess compound binding to HPV E6. In this reaction, protein denaturation is measured by an increase in fluorescence from Sypro Orange as it binds to the newly exposed hydrophobic surfaces on the protein [48]. A protein stability curve is created as a measure of the rate of protein unfolding. The relative fluorescence is plotted against temperature and the melting temperature (Tm) is determined by calculating the temperature of peak fluorescence. Ligand binding can stabilize the protein and increase the Tm. The thermal profile of MBP-E6 proteins was investigated to determine if the flavonoid derivatives could stabilize MBP-E6 protein structure during heat-induced unfolding. […] The change in Tm (∆Tm) was plotted for each compound and compared to DMSO (Figure 10F,G ).
# MBP-16E6 DNA, a kind gift from G. Travé [58], was transformed into BL21DE(3) E. coli. Protein expression was performed by inoculation of a 1 mL starter culture in 100 mL of Turbo-Broth containing 0.2 % lactose, 0.05% glucose and 0.6% glycerol at 20°C for 24 hrs. Cells were lysed in 50 mM Tris HCl pH 6.8, 300 mM NaCl, 0.1 % (v/v) NP-40, 2 mM DTT and 1x protease inhibitor cocktail (EDTA-free, Roche) and sonicated as described before. Cell lysate was cleared by centrifugation at 15000xg, 4°C for 30 min and equilibrated with amylose resin beads (New England Biolabs, Inc.) by inversion for 3 hrs at 4°C. Bound beads were washed one time in lysis buffer and four times with wash buffer (50 mM Tris-HCl pH 6.8, 400 mM NaCl, 2 mM DTT, 1x protease inhibitor cocktail). Bound MBP-E6 proteins were eluted using a final concentration of 20 mM maltose in 5 bed volumes of wash buffer. All steps were performed at 4°C. Protein concentration was measured by BCA (BioRad). Thermostability of MBP-E6 proteins was analyzed at a final concentration of 1 µM in reaction buffer (50 mM TrisHCl pH 6.8, 400 mM NaCl, 2 mM DTT). MBP-E6 proteins were equilibrated with CAF-8 (5 µM-150 µM), CAF-24 (5 µM-150 µM), CAF-26 (5 µM-150 µM) or DMSO for 30 min in reaction buffer. Sypro Orange, a hydrophobic fluorescent dye, was added at the end of the incubation period at a final concentration of 5X. The final DMSO concentration (1.8% v/v) was kept constant across the concentration range. Fluorescence was measured using the FRET channel of CFX96 Real-Time PCR thermal cycler (BioRad) over a temperature range of 25°C to 95°C. Temperature increments were set to 0.5°C for 30 sec followed by plate reading. Melt curves were determined in triplicate and repeated four times. Melt curves represent the relative fluorescence of the 1st derivative of four experiments. Melting temperature (Tm) was calculated by CFX manager software. The average melting temperature of the triplicate was used to calculate the ∆Tm for each experiment. ∆Tm values are expressed as the change vs. DMSO.
# T1 sequence (P03126 whole entry): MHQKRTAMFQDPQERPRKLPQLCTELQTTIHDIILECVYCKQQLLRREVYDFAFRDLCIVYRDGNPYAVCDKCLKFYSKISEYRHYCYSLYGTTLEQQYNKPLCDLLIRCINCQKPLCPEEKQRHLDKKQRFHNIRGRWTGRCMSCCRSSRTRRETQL
Compound,p21 protein levels [1],p53 protein levels [1],p21 mRNA level [2],effect on Tm of MBP-E6 [3],"shift of MBP-E6 Tm ([3]; at 25, 50 and 150 µM) [°C]"
"O=c1cc(-c2ccc(O)c(O)c2)oc2cc(O)cc(O)c12 [luteolin, reference compound]",increased p53 and p21 protein levels,increased p53 and p21 protein levels,increase in p21 mRNA,no effect on the Tm of MBP-E6; also recorded: did not shift the Tm of MBP-E6,
COc1cccc(-c2cc(=O)c3cc(-c4nnn[nH]4)ccc3o2)c1 [CAF-24],increased p53 and p21 protein levels,increased p53 and p21 protein levels,increase in p21 mRNA,about 1 °C,~1

# From publication PMC3871595, “Structure Based Identification and Characterization of Flavonoids That Disrupt Human Papillomavirus-16 E6 Function” (PLoS ONE, 2013)
